Assay results as given in patent US20240166690A1, “MULTI-TARGET CY[…] FOR OPIOID/NEUROPEPTIDE FF RECEPTORS, AND PREPARATION THEREFOR AND APPLICATION THEREOF” (SHANGHAI TIANCI LIFE SCIENCE DEVELOPMENT CO., LTD., priority 2021, published 2024).
Bridge positions count the residues as written; N and C are the ends. Square brackets hold non-standard residues; d marks the D form. Peptide text beside a SMILES is read from it. NMeF = CN[C@@H](Cc1ccccc1)C(=O)O; dOrn = NCCC[C@@H](N)C(=O)O

What was measured:
male mice = test: Conditioned place preference experiment (CPP); format: in vivo; conditions: 10000 μg/kg orally
Protocol: Conditioned place preference experiment (CPP) was conducted in a device consisting of three organic glass boxes, wherein two large boxes (20×20×20 cm) on either side separated by a small box (5×20×20 cm) in the middle. A small door of 5×5 was at the bottom of two large boxes for mice to enter and exit, and the doors can be closed. A box on one side was white, with a rough wire mesh as the bottom and a light intensity of 50 lux. A box on other side was black, with a smooth bottom and a light intensity of 20 lux. 25±5 g male mice were selected for the experiment, the room temperature was 22±1° C. On the first day of the experiment, the mice were first screened, allowing them to shuttle freely between two boxes for 15 minutes. The time the mice stayed in one box was recorded, and mice that stayed for more than 9 minutes were removed. Mice without preference/aversion were selected. […] On the 5th day, CPP performance was measured. As on the first day, the time stay in each box was measured for the mice after administration with the duration of 15 minutes. The inter group differences between different drug treatments in the CPP experiment and the differences in the number of jumps in the naloxone withdrawal experiment was statistically analyzed using paired t-tests. *P<0.05, **P<0.01, and ***P<0.001 indicated significance of differences between the drug treatment group and the saline group.

Mu-opioid receptor = target: T1, Mu-opioid receptor (Homo sapiens, UniProt P35372); test: cAMP functional experiment, Mu-opioid receptor (forskolin-induced cAMP accumulation); format: cell-based
T1 construct: expressed in transfected cells; host or cells: HEK293
Protocol: (§1) The agonistic activity of the cyclopeptide molecule of the present invention against Mu-opioid receptor, Delta-opioid receptor, Kappa-opioid receptor, NPFF1 receptor and NPFF2 receptor was evaluated by detecting the regulation of the cyclopeptide molecule of the present invention on the intracellular accumulation of cyclic adenosine monophosphate (cAMP) induced by Forskolin in HEK293 cells stably expressing these five receptors. The experimental method was: the cells were seeded in 24 well plates with 120000 cells per well, and were cultured for more than 20 hours. At the beginning of the experiment, the culture medium in the culture dish was suck out, and then 500 μL of preheated serum-free medium containing 1 mM of IBMX was added, the mixture was incubated at 37° C. for 10 minutes. Then each 10 μL of the drug to be tested and 10 μM of forskolin (final concentration) were added to each well. The mixture was incubated at 37° C. for 30 minutes. After incubation, all the liquid was suck out from the culture dish, 500 μL of 0.2 N hydrochloric acid was added to each well, the mixture was incubated at room temperature for 30 minutes to promote cell lysis. After lysis was complete, NaOH was added to neutralize the hydrochloric acid solution used for lysis. Then all the liquid was suck out from the culture dish into centrifuge tubes, the liquid was centrifuged at 12000 rpm for 2 minutes. 50 μL was taken to a clean centrifuge tube, 100 μL of 60 μg/μL PKA was added, and 100 μL of TE cAMP buffer was added to the blank control group (B). Another 50 μL of 0.5 μ Ci[^3H]cAMP was added to each of the above centrifuge tubes, the mixture was quickly mixed and incubated at 4° C. for more than 2 hours. After incubation, another 100 μL of activated carbon suspension was added to each tube, the mixture was vortex agitated evenly, placed in an ice bath for 1 minute, centrifuged at 5000 rpm for 4 minutes. 200 μL of supernatant after centrifugation in each tube was suck out to a 24 well plate, with an additional 700 μL of scintillator liquid added per well, then the 24 well plate was sealed with adhesive film, placed for 3 hours, then placed on the scintillation instrument for measurement.
(§2) The inhibitory effect of cAMP was represented by the percentage (% control) of drug inhibition of intracellular cAMP accumulation induced by Forskolin, wherein % control=(cAMP content when treated with Forskolin−cAMP content when Forskolin co-treated with the test drug)/(cAMP content when treated with Forskolin−cAMP content when treated with solvent). The related % control data was represented by mean±S.E.M. The dose-effect relationship of the drug was statistically analyzed using a nonlinear regression model, and the IC50 values of the multi-target cyclopeptide molecule on inhibition of Forskolin induced intracellular cAMP accumulation were calculated using the statistical software GraphPad Prism version 5.0.

NPFF2 receptor = target: T2, NPFF2 receptor (Homo sapiens, UniProt Q9Y5X5); test: cAMP functional experiment, NPFF2 receptor (forskolin-induced cAMP accumulation); format: cell-based
T2 construct: expressed in transfected cells; host or cells: HEK293
Protocol: as §1, §2

Kappa-opioid receptor = target: T3, Kappa-opioid receptor (Homo sapiens, UniProt P41145); test: cAMP functional experiment, Kappa-opioid receptor (forskolin-induced cAMP accumulation); format: cell-based
T3 construct: expressed in transfected cells; host or cells: HEK293
Protocol: as §1, §2

T3 sequence (P41145 whole entry): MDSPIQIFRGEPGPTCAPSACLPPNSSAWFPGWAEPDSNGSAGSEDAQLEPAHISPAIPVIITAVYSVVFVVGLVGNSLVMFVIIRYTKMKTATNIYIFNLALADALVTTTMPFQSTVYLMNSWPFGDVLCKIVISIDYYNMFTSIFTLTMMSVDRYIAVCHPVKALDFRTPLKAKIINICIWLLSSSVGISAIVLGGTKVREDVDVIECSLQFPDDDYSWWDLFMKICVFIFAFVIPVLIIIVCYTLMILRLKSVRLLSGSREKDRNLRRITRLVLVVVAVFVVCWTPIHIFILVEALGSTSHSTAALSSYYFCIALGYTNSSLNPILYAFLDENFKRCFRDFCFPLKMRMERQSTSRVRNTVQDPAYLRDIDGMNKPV
T2 sequence (Q9Y5X5 whole entry): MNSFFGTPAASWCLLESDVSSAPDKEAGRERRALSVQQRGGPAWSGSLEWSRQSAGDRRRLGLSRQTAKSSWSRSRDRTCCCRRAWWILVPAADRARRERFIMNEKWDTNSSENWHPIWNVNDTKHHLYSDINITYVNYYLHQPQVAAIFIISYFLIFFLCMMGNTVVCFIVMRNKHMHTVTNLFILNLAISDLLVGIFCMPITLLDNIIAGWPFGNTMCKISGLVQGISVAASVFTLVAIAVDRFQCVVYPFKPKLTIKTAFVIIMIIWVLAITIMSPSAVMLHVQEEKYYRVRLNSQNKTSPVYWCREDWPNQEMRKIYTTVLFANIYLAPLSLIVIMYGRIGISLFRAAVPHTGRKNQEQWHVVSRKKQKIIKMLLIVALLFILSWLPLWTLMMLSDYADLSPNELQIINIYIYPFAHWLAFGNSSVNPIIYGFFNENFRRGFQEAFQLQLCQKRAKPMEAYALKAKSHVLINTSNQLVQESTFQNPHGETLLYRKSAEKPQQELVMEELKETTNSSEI
T1 sequence (P35372 whole entry): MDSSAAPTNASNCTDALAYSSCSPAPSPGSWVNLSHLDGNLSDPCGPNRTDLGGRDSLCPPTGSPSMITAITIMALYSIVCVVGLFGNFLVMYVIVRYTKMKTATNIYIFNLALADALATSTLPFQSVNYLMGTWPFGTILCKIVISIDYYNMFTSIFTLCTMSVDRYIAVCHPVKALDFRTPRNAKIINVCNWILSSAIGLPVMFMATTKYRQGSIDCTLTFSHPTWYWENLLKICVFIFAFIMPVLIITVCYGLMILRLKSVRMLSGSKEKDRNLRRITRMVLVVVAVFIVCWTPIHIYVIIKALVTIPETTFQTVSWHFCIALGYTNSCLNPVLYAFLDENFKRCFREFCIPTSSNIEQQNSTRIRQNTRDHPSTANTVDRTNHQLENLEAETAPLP

SMILES	conditioned place preference (male mice)	IC50 (Mu-opioid receptor)	IC50 (NPFF2 receptor)	IC50 (Kappa-opioid receptor)
CN1C(=O)CNC(=O)[C@H](NC(=O)[C@@H](N)Cc2ccc(O)cc2)CCCCNC(=O)C[C@@H](C(=O)N2CCC[C@H]2C(=O)N[C@@H](CCC(N)=O)C(=O)N[C@@H](CCCNC(=N)N)C(=O)N[C@@H](Cc2ccccc2)C(N)=O)NC(=O)[C@@H]1Cc1ccccc1 [Compound 1, Tyr-c[D-Lys-Gly-NMe-Phe-Asp]-Pro-Gln-Arg-Phe-NH2] (H-Y[dK]G[NMeF]DPQRF-NH2; lactam 2-5)	no phenomenon of conditioned place preference	0.0935 µM	0.0498 µM	0.039 µM
CN1C(=O)CNC(=O)[C@H](NC(=O)[C@@H](N)Cc2ccc(O)cc2)CCCNC(=O)CC[C@@H](C(=O)N2CCC[C@H]2C(=O)N[C@@H](CCC(N)=O)C(=O)N[C@@H](CCCNC(=N)N)C(=O)N[C@@H](Cc2ccccc2)C(N)=O)NC(=O)[C@@H]1Cc1ccccc1 [Compound 11, Tyr-c^[2,5][D-Orn-Gly-NMe-Phe-Glu]-Pro-Gln-Arg-Phe-NH2] (H-Y[dOrn]G[NMeF]EPQRF-NH2; lactam 2-5)	no phenomenon of conditioned place preference	0.084 µM	0.572 µM	0.109 µM
